Inhibition and IC50 data for 4 compounds are collected here from patent US9315491B2 (DEVELOPMENT CENTER FOR BIOTECHNOLOGY, priority 2009, dated 2016).

One experiment deals with PI3K (p110α/p85α) (Homo sapiens (Human), UniProt P42336). The experiment in a line: PI3K HTRF enzyme assay, p110α/p85α. The format is biochemical. Particulars: read-out: % inhibition @ 500 nM p110α; compound at 500 nM, 10 μM ATP. In outline:
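Recombinant PI3K heterodimers with PIP2 substrate; reactions ran 30 min at room temperature with 10 μM ATP for p110α/p85α and 100 μM ATP for p110β/p85α. After stop, HTRF detection followed 17 h incubation in the dark at room temperature; HTRF ratio used as read-out.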
Background: Time-resolved FRET reads energy transfer from a long-lived donor to a nearby acceptor.

The target in another experiment is PI3K (p110β/p85α) (Homo sapiens (Human), UniProt P42338). Nature of the experiment: PI3K HTRF enzyme assay, p110β/p85α. In kind it is biochemical. Particulars: read-out: % inhibition @ 500 nM p110β; compound at 500 nM, 100 μM ATP. The protocol: Recombinant PI3K (p110α/p85α) and PI3K (p110β/p85α) were from Millipore. […] Briefly, the compounds of interest dissolved in 100% DMSO were dispensed in all wells, following which the mixture of PIP2 and enzyme was added. PI3K (p110α/p85α) and PI3K (p110β/p85α) enzyme reactions were initiated in the presence of 10 μM and 100 μM ATP, respectively, and incubated for 30 min at room temperature. STOP solution prepared 2 hours prior to use was added to stop reactions, and mixed well. Detection solution prepared 2 hours prior to use was added, and incubated at room temperature for 17 hours in the dark. […] HTRF ration was calculated as follows: […]

The next experiment deals with recombinant mTOR (Homo sapiens (Human), UniProt P42345). The experiment in a line: mTOR kinase assay (33P incorporation into 4EBP1). The format is biochemical. The conditions noted are these: compound at 10 μM, 10 μM ATP. In outline: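 Recombinant human mTOR (50 ng) phosphorylated His-tagged 4EBP1 (300 ng) with 10 μM ATP plus [γ-33P]-ATP in HEPES pH 7.5, MnCl2, EGTA and DTT for 30 min at 30° C. Labelled 4EBP1 was filter-captured and counted. IC50 was derived from eight-point duplicate dilution series.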

Another experiment relates to p-S6K (mTORC1). Nature of the experiment: Immunoblotting, PI3K/Akt/mTOR signal transduction, p-S6K. The conditions noted are these: Homo sapiens; PC-3 cell. In kind it is cell-based. From the text: (§1) For immunoblotting experiments, A549 cells were inoculated to the wells of a 6-well culture plate and cultured overnight. […] Proteins were separated by SDS-PAGE electrophoresis and transferred to PVDF membrane. Protein expression was immunobloted by various primary antibodies and detected by Immobilon Western Chemiluminescent HRP Substrate (Millipore). Antibody against Akt, phosphor-Akt (Ser473), phosphor-Akt (Thr308), p70 S6 Kinase, phosphor-p70 S6 Kinase (Thr389), 4E-BP1, and phosphor-4E-BP1 (Thr37/46) were purchased form Cell Signaling Technology.

In the next experiment the test system is p-Akt S473 (mTORC2). Nature of the experiment: Immunoblotting, PI3K/Akt/mTOR signal transduction, p-Akt S473. In kind it is cell-based. Particulars: Homo sapiens; PC-3 cell.
Source text: as §1
On the technique in general: Immunoblotting shows a protein as a band on a membrane.

Another experiment has as its system p-Akt T308 (PI3K). The experiment in a line: Immunoblotting, PI3K/Akt/mTOR signal transduction, p-Akt T308. In kind it is cell-based. The conditions noted are these: Homo sapiens; PC-3 cell.
Source text: as §1

Sequence of PI3K (p110β/p85α) (P42338 whole entry, species assumed): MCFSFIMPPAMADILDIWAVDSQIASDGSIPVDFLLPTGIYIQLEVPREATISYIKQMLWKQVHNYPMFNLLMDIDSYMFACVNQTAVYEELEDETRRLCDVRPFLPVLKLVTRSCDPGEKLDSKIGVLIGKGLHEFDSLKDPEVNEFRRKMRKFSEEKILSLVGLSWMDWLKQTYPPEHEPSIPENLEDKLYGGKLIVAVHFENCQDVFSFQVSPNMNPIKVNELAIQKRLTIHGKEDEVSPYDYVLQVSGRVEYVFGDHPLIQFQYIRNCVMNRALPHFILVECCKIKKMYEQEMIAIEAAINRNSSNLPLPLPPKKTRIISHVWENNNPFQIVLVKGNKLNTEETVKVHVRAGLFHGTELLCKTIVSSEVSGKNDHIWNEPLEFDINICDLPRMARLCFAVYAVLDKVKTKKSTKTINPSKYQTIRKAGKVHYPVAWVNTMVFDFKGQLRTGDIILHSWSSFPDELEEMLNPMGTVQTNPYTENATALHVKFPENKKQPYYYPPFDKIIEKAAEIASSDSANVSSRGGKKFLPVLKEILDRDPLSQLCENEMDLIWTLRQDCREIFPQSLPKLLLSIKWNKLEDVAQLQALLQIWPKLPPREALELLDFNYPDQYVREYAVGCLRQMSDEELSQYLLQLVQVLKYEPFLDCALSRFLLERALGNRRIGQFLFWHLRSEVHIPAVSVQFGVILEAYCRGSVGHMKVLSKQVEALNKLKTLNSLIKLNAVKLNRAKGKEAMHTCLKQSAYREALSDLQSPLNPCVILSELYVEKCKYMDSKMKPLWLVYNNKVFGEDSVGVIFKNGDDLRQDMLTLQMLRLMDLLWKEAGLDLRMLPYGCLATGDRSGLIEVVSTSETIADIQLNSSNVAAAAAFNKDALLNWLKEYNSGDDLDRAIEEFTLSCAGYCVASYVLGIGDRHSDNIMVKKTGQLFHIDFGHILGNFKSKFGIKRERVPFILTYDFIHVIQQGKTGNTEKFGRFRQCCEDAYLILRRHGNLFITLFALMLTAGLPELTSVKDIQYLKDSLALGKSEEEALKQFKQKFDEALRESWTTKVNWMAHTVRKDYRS
Sequence of PI3K (p110β/p85α) (P27986 whole entry partner, species assumed): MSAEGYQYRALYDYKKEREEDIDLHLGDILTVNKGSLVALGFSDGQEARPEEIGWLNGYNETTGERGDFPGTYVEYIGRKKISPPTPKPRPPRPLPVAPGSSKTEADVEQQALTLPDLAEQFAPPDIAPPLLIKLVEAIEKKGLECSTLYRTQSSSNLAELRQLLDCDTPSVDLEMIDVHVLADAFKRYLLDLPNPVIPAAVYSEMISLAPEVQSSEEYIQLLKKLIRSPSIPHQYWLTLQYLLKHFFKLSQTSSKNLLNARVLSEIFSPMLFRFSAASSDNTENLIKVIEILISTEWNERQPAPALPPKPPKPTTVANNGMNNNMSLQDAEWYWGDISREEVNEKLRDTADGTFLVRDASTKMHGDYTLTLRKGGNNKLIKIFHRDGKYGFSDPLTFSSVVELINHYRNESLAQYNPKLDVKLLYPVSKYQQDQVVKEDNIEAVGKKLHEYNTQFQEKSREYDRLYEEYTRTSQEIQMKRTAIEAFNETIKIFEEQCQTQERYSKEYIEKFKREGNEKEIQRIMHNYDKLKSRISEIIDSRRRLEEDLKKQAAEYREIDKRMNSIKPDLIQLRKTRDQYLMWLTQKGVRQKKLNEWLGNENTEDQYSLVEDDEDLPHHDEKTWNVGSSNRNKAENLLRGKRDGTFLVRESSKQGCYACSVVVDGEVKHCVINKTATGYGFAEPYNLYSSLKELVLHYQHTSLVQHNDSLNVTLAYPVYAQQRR
Sequence of recombinant mTOR (P42345 1360-2549): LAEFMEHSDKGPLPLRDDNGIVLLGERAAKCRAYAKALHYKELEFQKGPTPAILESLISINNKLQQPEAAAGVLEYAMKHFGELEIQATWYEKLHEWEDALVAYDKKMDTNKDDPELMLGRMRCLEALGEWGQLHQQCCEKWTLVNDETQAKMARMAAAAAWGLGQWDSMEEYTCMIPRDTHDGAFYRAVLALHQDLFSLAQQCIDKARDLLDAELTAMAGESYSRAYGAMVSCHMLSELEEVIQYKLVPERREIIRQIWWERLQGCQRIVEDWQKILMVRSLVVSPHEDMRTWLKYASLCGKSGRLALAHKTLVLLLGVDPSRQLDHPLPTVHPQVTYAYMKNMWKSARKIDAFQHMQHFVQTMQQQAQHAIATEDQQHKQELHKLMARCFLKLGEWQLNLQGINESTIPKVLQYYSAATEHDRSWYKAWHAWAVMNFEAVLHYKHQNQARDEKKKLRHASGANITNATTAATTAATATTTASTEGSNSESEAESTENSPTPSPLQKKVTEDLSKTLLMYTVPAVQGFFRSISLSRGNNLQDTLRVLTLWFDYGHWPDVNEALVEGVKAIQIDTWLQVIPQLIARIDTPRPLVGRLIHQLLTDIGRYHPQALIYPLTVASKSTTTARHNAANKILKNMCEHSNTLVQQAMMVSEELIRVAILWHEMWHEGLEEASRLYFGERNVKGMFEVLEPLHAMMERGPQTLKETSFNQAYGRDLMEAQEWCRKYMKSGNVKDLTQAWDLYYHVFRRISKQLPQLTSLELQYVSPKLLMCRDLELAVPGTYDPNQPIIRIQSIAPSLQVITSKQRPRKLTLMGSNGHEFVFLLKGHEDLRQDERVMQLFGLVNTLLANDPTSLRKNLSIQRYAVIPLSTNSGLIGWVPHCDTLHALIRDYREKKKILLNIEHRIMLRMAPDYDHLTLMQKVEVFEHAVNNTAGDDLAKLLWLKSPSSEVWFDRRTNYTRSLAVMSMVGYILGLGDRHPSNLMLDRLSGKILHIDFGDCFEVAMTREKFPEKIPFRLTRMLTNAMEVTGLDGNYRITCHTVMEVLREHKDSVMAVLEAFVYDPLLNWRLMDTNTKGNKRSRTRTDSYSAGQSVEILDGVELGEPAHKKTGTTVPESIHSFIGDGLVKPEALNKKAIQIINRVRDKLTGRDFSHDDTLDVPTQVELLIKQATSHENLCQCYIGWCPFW
Sequence of PI3K (p110α/p85α) (P42336 whole entry, species assumed): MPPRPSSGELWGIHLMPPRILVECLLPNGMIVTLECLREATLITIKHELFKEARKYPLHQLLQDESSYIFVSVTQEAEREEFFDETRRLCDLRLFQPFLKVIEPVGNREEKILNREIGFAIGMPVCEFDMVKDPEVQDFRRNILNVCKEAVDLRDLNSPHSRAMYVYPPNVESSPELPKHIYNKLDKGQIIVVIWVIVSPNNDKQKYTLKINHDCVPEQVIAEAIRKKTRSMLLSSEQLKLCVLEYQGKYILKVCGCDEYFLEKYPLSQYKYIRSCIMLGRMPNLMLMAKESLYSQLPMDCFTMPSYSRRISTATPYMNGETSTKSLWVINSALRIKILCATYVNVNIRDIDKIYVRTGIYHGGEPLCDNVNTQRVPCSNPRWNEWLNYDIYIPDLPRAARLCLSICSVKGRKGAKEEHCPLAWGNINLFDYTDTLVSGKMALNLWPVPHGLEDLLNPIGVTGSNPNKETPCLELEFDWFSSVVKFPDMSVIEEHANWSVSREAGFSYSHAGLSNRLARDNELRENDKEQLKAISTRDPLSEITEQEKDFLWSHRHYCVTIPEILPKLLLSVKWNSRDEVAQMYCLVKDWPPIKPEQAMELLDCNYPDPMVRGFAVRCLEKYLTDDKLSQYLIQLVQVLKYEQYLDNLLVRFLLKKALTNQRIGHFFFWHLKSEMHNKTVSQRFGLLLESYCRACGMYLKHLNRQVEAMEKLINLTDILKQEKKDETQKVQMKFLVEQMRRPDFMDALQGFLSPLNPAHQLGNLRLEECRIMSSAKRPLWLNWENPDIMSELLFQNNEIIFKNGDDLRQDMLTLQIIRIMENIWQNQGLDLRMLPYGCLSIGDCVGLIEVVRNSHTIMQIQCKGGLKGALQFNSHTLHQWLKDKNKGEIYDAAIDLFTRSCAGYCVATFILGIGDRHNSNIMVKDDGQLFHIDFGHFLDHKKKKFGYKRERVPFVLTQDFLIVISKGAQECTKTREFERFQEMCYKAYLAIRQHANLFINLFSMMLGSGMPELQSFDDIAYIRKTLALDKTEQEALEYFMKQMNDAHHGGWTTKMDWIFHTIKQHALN
Sequence of PI3K (p110α/p85α) (P27986 whole entry partner, species assumed): as the sequence (P27986 whole entry partner, species assumed) above

With `CSc1c(Cl)nc(-c2ccc(N)nc2)nc1N1CCOCC1` [MTR-0133, 5-(4-Chloro-5-methylsulfanyl-6-morpholin-4-yl-pyrimidin-2-yl)-pyridin-2-ylamine], the inhibition (commonly the relative decrease from the control value, in per cent) at 0.5 µM is 70% on PI3K (p110α/p85α) and 4.5% at PI3K (p110β/p85α). In addition, the inhibition at 10 µM on recombinant mTOR worked out at 93%.
The corresponding values for `CSc1c(Cl)nc(-c2ccc(NC(=O)Nc3ccc(F)cc3)cc2)nc1N1CCOCC1` [MTR-0135, 1-[4-(4-Chloro-5-methylsulfanyl-6-morpholin-4-yl-pyrimidin-2-yl)-phenyl]-3-(4-fluoro-phenyl)-urea] are 70.1%, 14.2% and 90%.
For `COc1cnc(-c2ccc(NC(=S)Nc3cccc(F)c3)cc2)nc1N1CCOCC1` [MTR-0168, 1-(3-Fluoro-phenyl)-3-[4-(5-methoxy-4-morpholin-4-yl-pyrimidin-2-yl)-phenyl]-thiourea], the inhibition at 0.5 µM on PI3K (p110α/p85α) was found to be 65%; at PI3K (p110β/p85α), 20.2%. Moreover, at recombinant mTOR, the inhibition at 10 µM is 91%.
On to `CO[C@H]1C[C@@H]2CC[C@@H](C)[C@@](O)(O2)C(=O)C(=O)N2CCCC[C@H]2C(=O)O[C@H]([C@H](C)C[C@@H]2CC[C@@H](O)[C@H](OC)C2)CC(=O)[C@H](C)/C=C(\C)[C@@H](O)[C@@H](OC)C(=O)[C@H](C)C[C@H](C)/C=C/C=C/C=C/1C` [Rapamycin, rapamycin, reference compound], for which the values for the IC50 in the experiment on p-S6K (mTORC1), with p-Akt S473 (mTORC2) and in the experiment on p-Akt T308 (PI3K) were less than 10 nM, less than 10 nM and greater than 1000 nM, respectively.
